In ChEMBL document CHEMBL3769363, “Discovery of trace amine-associated receptor 1 ligands by molecular docking screening against a homology model” (Medchemcomm, 2015):
The source made the active and inactive calls. The rule behind the calls is not given here.

Legend:
[1] = target: T1, Trace amine-associated receptor 1 (Homo sapiens) (UniProt Q96RJ0); assay: Agonist activity at human TAAR1 receptor expressed in HEK293T cells cotransfected with beta-2 receptor assessed as cAMP production by BRET assay relative to beta-PEA; format: functional, cell-based; set-up: concentration or dose not given beside the values; conditions: HEK-293T
T1 sequence (whole entry): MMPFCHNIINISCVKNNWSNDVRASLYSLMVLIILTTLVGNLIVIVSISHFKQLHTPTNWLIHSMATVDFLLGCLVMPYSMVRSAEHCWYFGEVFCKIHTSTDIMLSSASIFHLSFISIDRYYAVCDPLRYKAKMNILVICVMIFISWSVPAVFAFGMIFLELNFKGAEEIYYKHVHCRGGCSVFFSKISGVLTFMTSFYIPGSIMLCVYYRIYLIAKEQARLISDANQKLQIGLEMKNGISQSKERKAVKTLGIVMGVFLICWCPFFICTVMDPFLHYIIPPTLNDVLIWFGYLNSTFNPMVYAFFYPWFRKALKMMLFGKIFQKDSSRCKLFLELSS

[2] = target: T2, Trace amine-associated receptor 1 (Homo sapiens, UniProt Q96RJ0); assay: Agonist activity at human TAAR1 receptor expressed in HEK293T cells cotransfected with beta-2 receptor assessed as cAMP production by BRET assay; format: functional, cell-based, HEK-293T
T2 sequence (Q96RJ0 whole entry): T1 sequence (whole entry)

[3] = target: T1, Trace amine-associated receptor 1 (Homo sapiens); assay: Agonist activity at human TAAR1 receptor expressed in HEK293T cells cotransfected with beta-2 receptor assessed as cAMP production at 100 uM by BRET assay; format: functional, cell-based; conditions: HEK-293T
[4] = target: T1, Trace amine-associated receptor 1 (Homo sapiens); assay: Antagonist activity at human TAAR1 receptor expressed in HEK293T cells cotransfected with beta-2 receptor assessed as inhibition of beta-PEA-induced cAMP production at 100 uM by BRET assay; format: functional, cell-based; conditions: HEK-293T

Row | Compound | Activity [1] | EC50 [2] | Activity [3] | Activity [4]
1 | N=C(N)N/N=C/c1c(Cl)cccc1Cl [GUANABENZ] | 35.5% | 0.09 µM |  | 
2 | C[C@@H](CNCCO)c1ccccc1 |  |  | Active | 
3 | NC(N)=N/N=C/c1cccc(OCc2ccccc2)c1 |  | > 100 µM |  | 
4 | COc1cccc(/C=N/NC(=N)N)c1 | 24% |  | Active | Active
5 | Clc1ccc(CNCc2ccc(Cn3cncn3)cc2)c(Cl)c1 |  |  |  | Active
6 | COc1ccc2[nH]cc(CN(C)C)c2c1 |  |  | Active | 
7 | Cn1c(C2CCCCN2)nc2ccccc21 (centres undefined) | 38.4% | > 100 µM |  | 
8 | N=C(N)N/N=C/c1cccc(Br)c1 | -5.4% |  |  | 
9 | CN(Cn1ncc2cc([N+](=O)[O-])ccc21)[C@@H]1CCc2ccccc21 |  |  | Active | 
10 | CC(C)n1c(C2CCCN2)nc2ccccc21 (centres undefined) | 43.4% | 12.1 µM |  | 
11 | N=C(N)N/N=C/c1ccc2c(c1)OCO2 | 6.9% | > 100 µM |  | 
12 | c1ccc2c(c1)nnn2C[C@H]1CCCN1 |  |  | Active | 
13 | CCC(=O)/N=C(\N)Nc1nc2ccccc2o1 |  |  |  | Active
14 | CNCc1nc2ccccc2n1C(F)F |  |  | Active | 
15 | NC(N)=N/N=C/c1cccc(Br)c1 |  | > 100 µM |  | 
16 | Fc1ccc2c(CCNCc3cnn(-c4ccccc4)c3)c[nH]c2c1 |  |  |  | Active
17 | CN(Cc1ccc(Br)cc1)Cc1cccc(C(N)=O)c1 |  |  |  | Active
18 | Cc1cccc(CCN(C)C[C@H](O)c2ccccc2)c1 | 67.5% | 51.6 µM | Active | 
19 | C#CCN[C@H](C)Cc1ccccc1 |  |  | Active | 
20 | c1ccc2sc(C3CCCN3)nc2c1 (centres undefined) | 42.9% | > 100 µM |  | 
21 | C=CCn1cc(CN[C@H](C)Cn2ccc3ccccc32)c(C)n1 |  |  |  | Active
22 | COc1cccc(/C=N/N=C(N)N)c1 |  | 1.23 µM |  | 
23 | N=C(N)N/N=C1\CCCc2ccccc21 |  |  |  | Active
24 | N=C(N)N/N=C/c1cccc(OCc2ccccc2)c1 | 75% |  |  | 
25 | N=C(N)c1cccc(COc2ccccc2)c1 |  |  |  | Active
26 | Cn1c(C2CCCN2)nc2ccccc21 (centres undefined) | 55.8% | 18.1 µM | Active | 
27 | N=C(N)N/N=C/c1ccccc1 | 85.5% | 0.17 µM |  | 
28 | CCn1c(C2CCCN2)nc2ccccc21 (centres undefined) | 22.1% | > 100 µM |  | 
29 | Cn1c(CN)nc2ccccc21 | 21.6% | > 100 µM |  | 
30 | NCCc1ccccc1 [PHENETHYLAMINE] |  | 0.11 µM |  | 
